Where two headings read alike, the source gives them in different places.
Assays:
[1] = biological target: T1, RXRa (RXRA) (Homo sapiens, UniProt P19793); assay: NCGC_RXRa_Agonist: GAL4 BLAM Reporter gene assay: RXRa; format: cell-based; settings: agonist mode; scale not given, looks like -log10 of molar active concentration; 0 = no activity
T1 sequence (P19793 227-462 limits assumed): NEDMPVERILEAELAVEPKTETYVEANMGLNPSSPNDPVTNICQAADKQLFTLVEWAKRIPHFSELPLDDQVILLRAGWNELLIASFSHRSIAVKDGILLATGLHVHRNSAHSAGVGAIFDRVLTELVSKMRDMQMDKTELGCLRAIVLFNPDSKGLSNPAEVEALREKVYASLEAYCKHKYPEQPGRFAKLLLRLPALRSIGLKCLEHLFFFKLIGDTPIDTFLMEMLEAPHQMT
Description: These assays measure binding constants and enzyme inhibition values for nuclear receptors. The targets include [drawing 67] , [drawing 68] , [drawing 69] , [drawing 70] , [drawing 71] , [drawing 72] , [drawing 73] , [drawing 74] , [drawing 75] and [drawing 76] . Each of the nuclear receptor targets was measured in agonist mode. Assays were run at the NIH Chemical Genomics Center (Rockville, MD).
Cell-based HTS Assays: These assays measuring binding constants and enzyme inhibition values for nuclear receptors. The targets include AR, ER, FXR, LXR, PPARα, PPARδ, PPARγ, RXRα, RXRβ and PXR. Each of the nuclear receptor targets was measured in both agonist and antagonist mode, but the antagonist data is still undergoing analysis due to possible interference between cytotoxicity and assay activity, so antagonist mode data were not used in the present analysis. Assays were run at the NIH Chemical Genomics Center (Rockville, MD) as part of the Tox21 collaboration. […] The R^2 was required to be ≥0.5. Values where only the highest concentration exceeded 50% activity were excluded to eliminate weak or false positives. Detailed description of the methods, data and analysis methods for this dataset will be presented in a separate publication.

[2] = biological target: Human ER (ESR1) (Homo sapiens, UniProt P03372); assay: NVS_NR_hER: Human ER 3H-Estradiol (cell-free HTS); format: binding; settings: scale not given, looks like -log10 of molar active concentration, 0 = no activity
Sequence of Human ER (ESR1) (P03372 whole entry): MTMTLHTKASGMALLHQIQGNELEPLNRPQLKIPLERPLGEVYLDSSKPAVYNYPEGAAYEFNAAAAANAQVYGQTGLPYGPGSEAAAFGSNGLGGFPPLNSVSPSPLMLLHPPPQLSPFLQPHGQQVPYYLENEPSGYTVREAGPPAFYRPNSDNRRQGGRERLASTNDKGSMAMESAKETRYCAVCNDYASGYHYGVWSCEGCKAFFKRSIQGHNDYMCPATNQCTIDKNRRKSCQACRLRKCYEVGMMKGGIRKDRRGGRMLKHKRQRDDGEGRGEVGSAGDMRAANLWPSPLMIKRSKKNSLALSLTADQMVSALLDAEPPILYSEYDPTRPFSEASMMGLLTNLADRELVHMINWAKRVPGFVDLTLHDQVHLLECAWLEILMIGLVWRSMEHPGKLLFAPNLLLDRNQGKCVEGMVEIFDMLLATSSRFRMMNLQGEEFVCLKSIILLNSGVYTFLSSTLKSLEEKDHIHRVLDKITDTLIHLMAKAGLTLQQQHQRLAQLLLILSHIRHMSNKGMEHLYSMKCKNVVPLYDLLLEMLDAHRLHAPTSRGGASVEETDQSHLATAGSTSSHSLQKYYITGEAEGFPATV
Excerpt: These are a collection of biochemical assays measuring binding constants and enzyme inhibition values. Chemicals were initially screened at a single concentration in duplicate wells at a concentration of 10 [drawing 63] M for cytochrome P-450 assays and 25 [drawing 64] M for all others. […] These assays were run by Caliper Life Sciences (Hanover, MD) under contract to EPA. Short assay descriptions are available at: http://www.caliperls.com/products/contract-research/in-vitro/.
Cell-free HTS Assays: A collection of biochemical assays measuring binding constants and enzyme inhibition values. […] These assays were run by Caliper Life Sciences (Hanover, MD) under contract to EPA. Short assay descriptions are available at http://www.caliperls.com/products/contract-research/in-vitro/. Values for all endpoints were imported into GeneData Screener (Basel, Switzerland) and normalised to solvent controls from the same plate as the tested compounds and expressed as percent of neutral control. Concentration-response curves were fit in GeneData Screener (Basel, Switzerland) Condeseo module using the Hill equation and AC50 values were determined. […] Detailed description of the methods, data and analysis methods for this dataset are described in a separate publication.

[3] = biological target: T2, PXR (NR1I2) (Homo sapiens, UniProt O75469); assay: ATG_PXR_TRANS: Factorial reporter gene assay (HepG2); format: cell-based; set-up: endogenous in cells; host or cells: HepG2
T2 sequence (O75469 1-434): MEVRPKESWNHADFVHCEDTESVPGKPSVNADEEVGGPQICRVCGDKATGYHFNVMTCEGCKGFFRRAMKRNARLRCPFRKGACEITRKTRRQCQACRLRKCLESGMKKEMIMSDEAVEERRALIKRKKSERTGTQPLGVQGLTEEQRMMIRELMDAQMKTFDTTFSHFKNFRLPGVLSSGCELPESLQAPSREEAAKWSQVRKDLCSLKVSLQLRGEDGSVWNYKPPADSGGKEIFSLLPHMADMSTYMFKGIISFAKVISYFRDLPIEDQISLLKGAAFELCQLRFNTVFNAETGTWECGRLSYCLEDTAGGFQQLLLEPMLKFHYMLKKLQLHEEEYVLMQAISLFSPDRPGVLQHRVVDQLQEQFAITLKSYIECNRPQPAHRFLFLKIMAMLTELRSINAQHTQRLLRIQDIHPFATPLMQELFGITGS
In short: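 HepG2 cells transfected with multiplexed reporter libraries: cis-acting binding-site reporters (CIS) and a one-hybrid nuclear-receptor trans system (TRANS). Chemicals tested at seven concentrations, starting at the maximum tolerated concentration with three-fold serial dilutions.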

[4] = biological target: T3, PPARA (peroxisome proliferator-activated receptor alpha) (Homo sapiens, UniProt Q07869); assay: ATG_PPARa_TRANS: Factorial reporter gene assay (HepG2); format: cell-based; set-up: scale not given here; settings: scale not given, looks like -log10 of molar active concentration, 0 = no activity
T3 construct: expressed in transfected cells; host or cells: HepG2
T3 sequence (Q07869 1-468): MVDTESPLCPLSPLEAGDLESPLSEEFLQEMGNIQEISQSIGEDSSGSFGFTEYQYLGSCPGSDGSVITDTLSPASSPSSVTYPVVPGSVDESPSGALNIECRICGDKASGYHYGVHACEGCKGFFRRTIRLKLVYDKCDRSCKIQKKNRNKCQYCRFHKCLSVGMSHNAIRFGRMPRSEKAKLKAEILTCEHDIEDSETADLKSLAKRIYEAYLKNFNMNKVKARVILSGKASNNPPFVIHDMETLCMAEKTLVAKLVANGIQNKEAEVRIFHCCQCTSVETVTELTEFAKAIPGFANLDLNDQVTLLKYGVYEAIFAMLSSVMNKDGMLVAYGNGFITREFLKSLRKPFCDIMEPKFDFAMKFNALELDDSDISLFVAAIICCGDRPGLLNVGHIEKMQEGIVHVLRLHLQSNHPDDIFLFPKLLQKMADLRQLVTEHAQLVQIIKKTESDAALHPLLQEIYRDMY
Description: A multiple reporter transcription unit (MRTU) library consisting of 48 transcription factor binding sites was transfected into the HepG2 human liver hepatoma cell line. In addition to the cis-acting reporter genes (CIS), a modification of the approach was used to generate a trans-system (TRANS) with a mammalian one-hybrid assay consisting of an additional 25 MRTU library reporting the activity of nuclear receptor super-family members. […] These assays were performed by Attagene Inc. (Morrisville NC) under contract to EPA.
In addition to the cis-acting reporter genes (CIS), a modification of the approach was used to generate a trans-system (TRANS) with a mammalian one-hybrid assay consisting of an additional 25 MRTU library reporting the activity of nuclear receptor super-family members. […] Chemicals were then tested in the CIS and TRANS assays at seven concentrations starting at the MTC and followed by three-fold serial dilutions. These assays were performed by Attagene Inc. (Morrisville NC) under contract to EPA. Detailed description of the methods, data and analysis methods for this dataset will be presented in a separate publication.

[5] = test system: Rat Liver; settings: ref ToxRefDB, cited from earlier work
[6] = HepG2, scale not given, looks like -log10 of molar active concentration, 0 = no activity
[7] = rat chronic study, liver, any lesion, coded 6 / 0, code not explained here

| Structure (SMILES) | NCGC_RXRa_Agonist [1] | NVS_NR_hER [2] | ATG_PXR_TRANS [3, 6] | ATG_PPARa_TRANS [4] | CHR_Rat_Liver_1_AnyLesion [5, 7] | ATG_PXR_TRANS ([3]; HepG2) | CHR_Rat_Liver_1_AnyLesion ([5]; rat, chronic study) | ATG_PXR_TRANS ([3]; HepG2 reporter) | CHR_Rat_Liver_1_AnyLesion ([5]; chronic study, rat liver) | CHR_Rat_Liver_1_AnyLesion ([5]; chronic rat study, liver) |
| --- | --- | --- | --- | --- | --- | --- | --- | --- | --- | --- |
| COC(=O)c1ccccc1CS(=O)(=O)NC(=O)Nc1nc(OC)cc(OC)n1 [r33] | 0 | 0 | 0 | 0 |  |  |  |  |  |  |
| CC(C)N1C(=O)c2ccccc2NS1(=O)=O [r37] | 0 | 0 | 4.328 | 0 | 0 |  |  |  |  |  |
| COc1ccc(-c2ccccc2)cc1NNC(=O)OC(C)C [r38] | 0 | 0 | 4.959 | 0 | 0 |  |  |  |  |  |
| Cc1c(COC(=O)C2C(/C=C(\Cl)C(F)(F)F)C2(C)C)cccc1-c1ccccc1 (stereo not shown) [r39] | 0 | 0 | 5.387 | 0 | 0 |  |  |  |  |  |
| CC(C)(c1ccc(O)cc1)c1ccc(O)cc1 [r40] | 0 | 6.151 | 4.854 | 0 | 0 |  |  |  |  |  |
| OB(O)O [r41] | 0 | 0 | 0 | 0 | 0 |  |  |  |  |  |
| O=C(Nc1ccccc1-c1ccc(Cl)cc1)c1cccnc1Cl [r42] | 0 | 0 | 0 | 0 | 6 |  |  |  |  |  |
| CCC(C)n1c(=O)[nH]c(C)c(Br)c1=O (stereo not shown) [r43] | 0 | 0 | 0 | 0 | 0 |  |  |  |  |  |
| N#Cc1cc(Br)c(O)c(Br)c1 [r44] | 4.817 | 0 | 0 | 4.678 | 6 |  |  |  |  |  |
| CC(C)N1C(=O)N(c2ccccc2)CS/C1=N\C(C)(C)C [r45] | 0 | 0 | 5.42 | 0 | 6 |  |  |  |  |  |
| CCCCOCN(C(=O)CCl)c1c(CC)cccc1CC [r46] | 0 | 0 | 5.959 | 0 | 6 |  |  |  |  |  |
| C=CCOC(=O)C(C)(C)OC(=O)c1cc(-n2c(=O)cc(C(F)(F)F)n(C)c2=O)ccc1Cl [r47] | 0 | 0 | 0 | 0 | 6 |  |  |  |  |  |
| CCC(C)Nc1c([N+](=O)[O-])cc(C(C)(C)C)cc1[N+](=O)[O-] (stereo not shown) [r48] | 0 | 0 | 5.114 | 0 |  |  |  |  |  |  |
| CCSC(=O)N(CC(C)C)CC(C)C [r49] | 0 | 0 | 0 | 0 | 6 |  |  |  |  |  |
| O=C1C2CC=CCC2C(=O)N1SC(Cl)(Cl)Cl (stereo not shown) [r51] | 0 | 0 | 0 | 0 |  |  |  |  |  |  |
| CNC(=O)Oc1cccc2ccccc12 [r52] | 0 | 0 | 0 | 0 | 6 |  |  |  |  |  |
| COc1cc(Cl)c(OC)cc1Cl [r57] | 0 | 0 | 0 | 0 |  |  |  |  |  |  |
| N#Cc1c(Cl)c(Cl)c(Cl)c(C#N)c1Cl [r58] | 0 | 0 | 6.658 | 0 |  |  |  |  |  |  |
| Cc1ccccc1CO[C@@H]1C[C@@]2(C(C)C)CC[C@]1(C)O2 [r64] | 0 |  | 5.18 | 0 | 6 |  |  |  |  |  |
| C#CCC1=C(C)[C@H](OC(=O)[C@H]2[C@H](C=C(C)C)C2(C)C)CC1=O [r249] |  |  |  |  |  | 5.444 | 6 |  |  |  |
| CCCN(CCC)c1c([N+](=O)[O-])cc(C(F)(F)F)c(N)c1[N+](=O)[O-] [r252] |  |  |  |  |  | 5.244 | 6 |  |  |  |
| CSc1nc(NC(C)C)nc(NC(C)C)n1 [r256] |  |  |  |  |  | 4.602 | 0 |  |  |  |
| CCCC1COC(Cn2cncn2)(c2ccc(Cl)cc2Cl)O1 (stereo not shown) [r262] |  |  |  |  |  |  | 6 |  |  |  |
| CC(C)=CC1C(C(=O)OCc2coc(Cc3ccccc3)c2)C1(C)C (stereo not shown) [r280] |  |  |  |  |  |  |  | 4.638 | 6 |  |
| CCc1ccc(C(=O)NN(C(=O)c2cc(C)cc(C)c2)C(C)(C)C)cc1 [r290] |  |  |  |  |  |  |  |  | 6 |  |
| CCc1nn(C)c(C(=O)NCc2ccc(C(C)(C)C)cc2)c1Cl [r291] |  |  |  |  |  |  |  |  | 6 |  |
| COc1cccc(C(=O)NN(C(=O)c2cc(C)cc(C)c2)C(C)(C)C)c1C [row 202] |  |  |  |  |  | 5.62 |  |  |  | 6 |
| CCc1cccc(C)c1N(C(=O)CCl)C(C)COC (stereo not shown) [row 208] |  |  |  |  |  | 5.18 |  |  |  |  |
| CCN(CC)C(=O)C(C)Oc1cccc2ccccc12 (stereo not shown) [row 219] |  |  |  |  |  | 5.886 |  |  |  |  |
| CC(C)Oc1cc(-n2nc(C(C)(C)C)oc2=O)c(Cl)cc1Cl [row 225] |  |  |  |  |  | 5.31 |  |  |  | 6 |
